How the values were obtained:
Assay in all cases: microbe, parasite or virus in culture
Type in all cases: cell-based, SARS-CoV-2
[1] = system: pseudoviruses carrying spike proteins of different variants; conditions: Severe acute respiratory syndrome coronavirus 2, read-out: EC50 values against different variants (span)
[2] = system: pseudovirus carrying spike protein of the delta variant; conditions: read-out: EC50 (nM) (Delta)
[3] = system: pseudovirus carrying spike protein of the alpha variant; conditions: read-out: EC50 (nM) (Alpha)
[4] = system: pseudovirus carrying spike protein of the omicron variant; conditions: read-out: EC50 (nM) (Omicron)
[5] = system: pseudovirus carrying spike protein of the beta variant; conditions: read-out: EC50 (nM) (Beta)

| SMILES | EC50 [1] [nM] | EC50 [2] [nM] | EC50 [3] [nM] | EC50 [4] [nM] | EC50 [5] [nM] |
| --- | --- | --- | --- | --- | --- |
| C[C@@H]1CCO[C@H]2Cn3cc(C(=O)NCc4ccc(F)cc4F)c(=O)c(O)c3C(=O)N12 [Dolutegravir sodium] | 10.2 to 22.9 | 3 | 15.8 | 2.6 | 10.2 |
| Cc1cc(C#N)cc(C)c1Oc1nc(Nc2ccc(C#N)cc2)nc(N)c1Br [Etravirine] | 4.5 to 5.8 | 2.9 | 4.9 | 3 | 4.5 |

From PMC8999638, “Identification of Entry Inhibitors against Delta and Omicron Variants of SARS-CoV-2” (International Journal of Molecular Sciences, 2022)
